Experiments:
5-HT6 receptors = 5-HT6 receptors (Rattus norvegicus, UniProt P31388); settings: Roth et al, 1994; cited from earlier work
[1] = Feeding study: olanzapine-induced weight-gain and hyperphagia in rats on a high-fat diet; type: in vivo, female Sprague-Dawley rats; settings: olanzapine 3 mg/kg po; for Mean body weight (g) Day 15: after 14 days of treatment, high-fat diet; for Mean body weight (g) Day 15 / Mean body weight (g) Day 0: n=10; for Mean body weight (g) Day 0: before treatment (baseline)
Experimental: The experiment was performed on 40 female Sprague-Dawley rats (originally in the weight range 250-300 g). The animal room was maintained at a temperature of 21±4°C and 55±20% humidity and on a reversed phase light-dark cycle (lights off for 8 h from 09.30-17.30 h) during which time the room was illuminated by red light. Animals had free access to powdered high fat diet (VRF1 plus 20% lard). The diet was contained in a glass feeding jar with an aluminium lid with a 3-4 cm hole cut in it to allow access to the food. Animals were housed singly in polypropylene cages with wire grid floors to enable the food intake of each rat to be recorded. Polypropylene trays containing cage pads were placed beneath each cage to detect any food spillage. Animals were accustomed to these new conditions (individual housing and the wire-grid floor cages) for at least 14 days before the start of the baseline readings.
Approximately a week before the start of the study, animals were weighed (to the nearest 0.1 g using an electronic top-pan balance) and allocated into 4 weight-matched treatment groups, each containing 10 animals. Following a 7 day baseline run-in period, during which the animals were dosed orally with vehicle (0.5% hydroxypropylmethylcellulose), to acclimatise them to dosing/handling, the rats were given treatments, described in the Table below, for 14 days.
Food intake and body weight were measured once daily. Variations in body weight were accounted for by expressing the food intake results in terms of g/kg rat weight.
(§1) Statistical comparisons between the body weights of the different treatment groups were made by analysis of covariance followed by multiple t tests (two-tailed) to compare each treatment group with the vehicle-treated controls. For the body weight data (body weights recorded each day), the weights of the animals on Day 1 (ie immediately before the first drug treatment) were used as the covariate. Thus, means were adjusted for differences in body weight between the groups on Day 1 and standard errors of the mean (SEM) were calculated from the residuals of the statistical model. All mean body weight values on Day 1 are identical (and SEM are therefore zero) because the analysis of covariance adjusts them all to equal the 'grand mean' of the values of this day.
Statistical comparisons between the food intakes of the different treatment groups were made by analysis of covariance followed by multiple t tests (two-tailed) to compare each treatment group with the vehicle-treated controls. Food intake of the animals at baseline (ie average of Day -6 to Day 0) was used as the covariate. Standard errors of the mean (SEM) were calculated from the residuals of the statistical model.
Analysis of body weights and average daily food intakes were also performed to analyse cumulative food intake and body weight changes. Analysis of covariance followed by post-hoc Student's t-test (two-tailed) was used to compare the average daily food intakes over Week 1 and Week 2 for COMPOUND 1 treatment group versus (a) the vehicle-treated and (b) the olanzapine-treated groups of rats. The body weights of all groups of rats before and after treatment were statistically compared pair-wise using Student's paired t-test (two-tailed).

human 5-HT6 receptors = biological target: T1, human 5-HT6 receptors (Homo sapiens, UniProt P50406); test: Radiolabelled ligand-receptor binding ([3H]-LSD) on cloned/transfected human 5-HT6 receptors; settings: equated from the pKi value
T1 construct: purchased Perkin-Elmer; host or cells: HEK-293 (stably transfected), membranes
T1 sequence (P50406 whole entry): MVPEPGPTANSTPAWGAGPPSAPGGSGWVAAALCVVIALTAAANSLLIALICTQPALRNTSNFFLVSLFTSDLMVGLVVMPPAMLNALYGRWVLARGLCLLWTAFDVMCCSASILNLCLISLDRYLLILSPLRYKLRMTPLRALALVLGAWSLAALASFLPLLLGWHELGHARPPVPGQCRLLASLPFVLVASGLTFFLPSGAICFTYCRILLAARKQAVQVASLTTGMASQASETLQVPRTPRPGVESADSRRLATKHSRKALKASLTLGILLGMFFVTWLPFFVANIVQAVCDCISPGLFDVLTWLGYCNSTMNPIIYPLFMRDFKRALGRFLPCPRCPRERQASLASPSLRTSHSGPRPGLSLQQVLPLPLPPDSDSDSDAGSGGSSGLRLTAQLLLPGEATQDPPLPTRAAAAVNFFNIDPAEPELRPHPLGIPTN
Experimental: To investigate the binding properties of 5-HT6 receptor ligands to human 5-HT6 receptors, transfected HEK-293 membranes from Perkin-Elmer and [3H]-LSD (NEN), as the radioligand, were used. The assay was carried out in 96-well plates with a total reaction volume of 200 µl, containing 100 µl of membrane suspension (35 µg protein/well), 10 µl of [3H]-LSD (2.7 nM) in either the absence or presence of 90 µl of either buffer or methiothepin (5 µM) for total and non-specific binding, respectively. Binding buffer contained 50 mMTris-HCl, 10 mM MgCl2 and 0.5 mM EDTA at pH 7.4. Plates were incubated at 37 °C for 60 minutes. After the incubation period, 170 µl of incubate were transferred to MultiScreen HTS, FC plates (Millipore), filtered and plates were washed 3 times with ice-cold 50mM Tris-HCl (pH 7.4). Filters were dried and counted at approximately 40% efficiency in a MicroBeta scintillation counter (Perkin-Elmer) using 25 µl per well of EcoScint liquid scintillation cocktail.

[2] = biological target: rat variant of the 5-HT6 receptor (Rattus norvegicus, UniProt P31388); settings: Romero et al, 2006; cited from earlier work
[3] = biological target: human variant of the 5-HT6 receptor (Homo sapiens, UniProt P50406); settings: Romero et al, 2006; cited from earlier work
[4] = Feeding study in dietary-induced obese (DIO) rats, comparison with sibutramine; type: in vivo, female Wistar rats; settings: for body weight compared with the vehicle-treated controls / daily food intake: 28 days; for body weight compared with the vehicle-treated controls / daily food intake / days on which the decreases of food intake were statistically significant versus the vehicle-treated control group / weighed less than the vehicle-treated controls: COMPOUND 1 30 mg/kg po bid; for body weight compared with the vehicle-treated controls: sibutramine 5 mg/kg/day po once daily (Figure 4); for daily food intake: sibutramine 5 mg/kg/day po once daily (Figure 5); for days on which the decreases of food intake were statistically significant versus the vehicle-treated control group / weighed less than the vehicle-treated controls: sibutramine 5 mg/kg/day po; for weighed less than the vehicle-treated controls: end of treatment period (Day 28); for weight reductions: over the 28 daily treatment period, DIO rat (Figure 4)
Experimental: The experiment was performed on female Wistar rats (originally in the weight range 250-300 g). The rats were housed in pairs in polypropylene cages with solid floors and sawdust bedding at a temperature of 21±4°C and 55±20% humidity. Animals were maintained on a reverse phase light-dark cycle (lights off for 8 h from 09.30-17.30 h) during which time the room was illuminated by red light. Animals had free access to powdered high fat diet (VRF1 plus 20% lard), ground chocolate, ground peanuts and tap water at all times. The three different diets were contained in separate glass feeding jars with aluminum lids with a 3-4 cm hole cut in them to allow access to the food. Animals were housed in pairs for twelve weeks for the induction of obesity. Animals were then housed singly in polypropylene cages with wire grid floors to enable the food intake of each rat to be recorded. Polypropylene trays with cage pads were placed beneath each cage to detect any food spillage. Animals were accustomed to these new conditions (individual housing and the wire-grid floor cages) for at least 14 days before the start of the baseline readings.
At the start of the first DIO study, animals were weighed (to the nearest 0.1 g using an electronic top-pan balance) and allocated into 3 weight-matched treatment groups, each containing 10 animals. Following a 7 day baseline run-in period, during which time all animals were dosed orally once a day with vehicle (0.5% hydroxypropylmethylcellulose), rats were dosed for 28 days with vehicle at 0 and 6 h or test compound either COMPOUND 1 (30 mg/kg, p.o., twice a day at 0 and 6 h) or sibutramine (5 mg/kg, p.o. at 0 h / vehicle p.o. at 6 h). The first compound dose was given at the onset of the 8 h dark period (0 h). This strategy was taken to maximise the impact of any inhibitory effect of the compounds on food intake as rats are predominantly nocturnal feeders. Six hours later, animals were dosed again with either vehicle or compounds.
Food intake and body weight were measured once daily. Variations in body weight and energy levels of the different types of food were accounted for by expressing the food intake results in terms of kJ/kg rat weight.
as §1, with “body weights and daily food intakes of the” for “body weights of the”, “treatment groups have been made by” for “treatment groups were made by”, “followed by Dunnett's test to compare” for “followed by multiple t tests (two-tailed) to compare”, “(body weights each day),” for “(body weights recorded each day),”

[5] = repeated sibutramine administration, 14 days (Figure 7); cited from earlier work
[6] = 5-HT6 antagonists; Svartengren et al, 2004; Shacham et al, 2006; cited from earlier work

Chain of 5-HT6 receptors (P31388 whole entry): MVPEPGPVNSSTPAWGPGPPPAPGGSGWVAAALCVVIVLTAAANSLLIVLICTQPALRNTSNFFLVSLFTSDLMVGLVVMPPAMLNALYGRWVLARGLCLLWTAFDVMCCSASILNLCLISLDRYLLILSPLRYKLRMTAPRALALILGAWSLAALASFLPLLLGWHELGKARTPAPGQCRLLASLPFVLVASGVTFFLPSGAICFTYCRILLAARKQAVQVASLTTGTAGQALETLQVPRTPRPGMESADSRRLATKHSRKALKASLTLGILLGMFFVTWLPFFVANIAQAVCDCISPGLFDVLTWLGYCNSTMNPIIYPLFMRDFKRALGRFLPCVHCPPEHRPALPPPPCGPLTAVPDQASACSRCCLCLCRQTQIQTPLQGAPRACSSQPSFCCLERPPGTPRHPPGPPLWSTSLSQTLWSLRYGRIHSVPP

OC1(c2ccc(Cl)c(C(F)(F)F)c2)CCN(CCCC(c2ccc(F)cc2)c2ccc(F)cc2)CC1 [penfluridol]
affinity for this 5-HT receptor subtype (5-HT6) (5-HT6 receptors): no relevant affinity

CN(C)CCc1c[nH]c2ccc(NS(=O)(=O)c3ccc4c(Cl)cccc4c3)cc12 [COMPOUND 1, 5-Chloro-naphthalene-2-sulfonic acid [3-(2-dimethylamino-ethyl)-1H-indol-5-yl]-amide]
body weight compared to the vehicle + vehicle-treated control ([1]; 14 days, COMPOUND 1 30 mg/kg po bid, high-fat diet (Figure 1)): gradual decrease in body weight | daily food intake compared to the vehicle-treated controls ([1]; 14 days, COMPOUND 1 30 mg/kg po bid, high-fat diet (Figure 2)): markedly reduced their food intakes | cumulative intake of food over the first week compared to the vehicle controls ([1]; Week 1, COMPOUND 1 30 mg/kg po bid (Figure 3)): statistically lower (p < 0.001) | Mean body weight (g) Day 15 ([1]; COMPOUND 1 30 mg/kg po bid): 289.5 ± 6.1 g | Mean body weight (g) Day 0 ([1]; COMPOUND 1 30 mg/kg po bid): 292.8 ± 7.2 g | Ki (human 5-HT6 receptors): 0.74 nM | functionality at the 5-HT6 receptor [2]: agonist | functionality at the 5-HT6 receptor [3]: agonist | body weight compared with the vehicle-treated controls [4]: marked and sustained decrease in the body weights | daily food intake [4]: reduction in daily food intake | days on which the decreases of food intake were statistically significant versus the vehicle-treated control group [4]: Day 2 to Day 8 | weighed less than the vehicle-treated controls [4]: 15.6% | weight reductions [4]: greater than 10%

CC(C)CC(N(C)C)C1(c2ccc(Cl)cc2)CCC1 (stereo not shown) [sibutramine]
effect on the weight-gain evoked by olanzapine [5]: only partially to attenuate the weight-gain | body weight compared with the vehicle-treated controls [4]: significant body weight-loss | daily food intake [4]: significant reduction of food intake | days on which the decreases of food intake were statistically significant versus the vehicle-treated control group [4]: Day 1 to Day 5 | weighed less than the vehicle-treated controls [4]: 10.8% | weight reductions [4]: greater than 10%

C[C@@H]1CN(CCCn2c3ccccc3c3ccccc32)C[C@H](C)N1 [rimcazole]
affinity for this 5-HT receptor subtype (5-HT6) (5-HT6 receptors): no relevant affinity

Cc1cc2c(s1)Nc1ccccc1N=C2N1CCN(C)CC1 [Olanzapine]
Mean body weight (g) Day 15 ([1]; COMPOUND 1 30 mg/kg po bid): 333.0 ± 8.2 g | Mean body weight (g) Day 0 ([1]; COMPOUND 1 30 mg/kg po bid): 296.9 ± 7.2 g

CCN1CCC[C@H]1CNC(=O)c1c(O)c(Cl)cc(Cl)c1OC [raclopride]
affinity for this 5-HT receptor subtype (5-HT6) (5-HT6 receptors): no relevant affinity

COc1cc(Cl)cc(C(C)Nc2cc(N3CCNCC3)ccc2S(C)(=O)=O)c1OC.Cl (stereo not shown) [PRX-07034]
food intake and body weight in obese rodents [6]: reduce food intake and produce sustained weight-loss

Source: patent EP2018861A1, “5HT6-Ligands such as sulfonamide derivatives in drug-induced weight-gain” (Laboratorios del Dr. Esteve S.A., priority 2007, dated 2009)
